Literature values in patent EP3958980B1, “TARGETED NOVEL TRIAZOLOTHIADIAZINE DERIVATIVES FOR THE TREATMENT OF LUNG CANCER” (Anadolu Universitesi, priority 2020, dated 2021).

Tests used:
[1] = test system: kidney cancer (OU-31) cell line; set-up: concentration or dose not given beside the values; conditions: cited from earlier work
[2] = test system: leukemia (MOLT-4) cell line; conditions: cited from earlier work
[3] = test system: kidney fibroblast (BHK-21) and lung carcinoma (H-157) cell lines; conditions: highest cytotoxic activity; cell line not stated; cited from earlier work
[4] = test system: kidney fibroblast (BHK-21) cells; conditions: cited from earlier work
lung cancer (H157) cells = conditions: cited from earlier work
[5] = test system: 60 cell lines formed of leukemia, NSCLC, melanoma, prostate, ovarian and breast cancers; conditions: against all cancer cells; cited from earlier work

In the case of `O=C(CSc1nnc2n1N=C(c1ccc(Cl)cc1)CS2)c1ccc(F)cc1` [2-((6-(4-Chlorophenyl)-7H-[1,2,4]triazolo[3,4-b][1,3,4]thiadiazine-3-yl)thio-1-(4-fluorophenyl)ethanone], the growth [1] is listed as 48.14% and the growth [2] is listed as 49.82%.

For `O=c1oc2ccccc2cc1-c1nnc2n1N=C(c1ccc(-c3ccccc3)cc1)CS2` [3-(6-(Biphenyl-4-yl)-7H-[1,2,4]triazolo[3,4-b][1,3,4]-thiadiazine-3-yl)-2H-chromene-2-one], the IC50 [3] is listed as 1010 ± 120 nM.

For `CC[C@]1(O)C[C@H]2CN(CCc3c([nH]c4ccccc34)[C@@](C(=O)OC)(c3cc4c(cc3OC)N(C=O)[C@H]3[C@@](O)(C(=O)OC)[C@H](OC(C)=O)[C@]5(CC)C=CCN6CC[C@]43[C@@H]65)C2)C1` [vincristine], the inhibition [4] is given as 74.5% and the IC50 (lung cancer (H157) cells) is given as 1030 ± 40 nM.

For `Fc1cc(-c2nnc3n2N=C(c2ccc(Cl)cc2)CS3)c(Cl)cc1Cl` [3-(2,4-Dichloro-5-fluorophenyl)-6-(4-chlorophenyl)-1,2,4-triazolo[3,4-b]-1,3,4-thiadiazine], the GI50 [5] is listed as 1.06 to 25.4 µM.
